According to patent publication US9873690B2, “3-indol substituted derivatives, pharmaceutical compositions and methods for use” (Pfizer Inc., priority 2015, dated 2018):

Biological target: T1, hTDO2 (Homo sapiens, UniProt P48775)
T1 construct: endogenous in cells; host or cells: A172 human brain glioblastoma cells (ATCC CRL-1620)
Test: Cellular assay for TDO2 activity determination in A172 cells
Assay type: cell-based
Conditions: human glioblastoma A172 cells naturally expressing hTDO2; overnight incubation; kynurenine by absorbance at 480 nm
Procedure, shortened: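 A172 glioblastoma cells endogenously expressing hTDO2, 1.25×10^4 cells/well, incubated overnight at 37 °C, 5% CO2 in IMDM with 2% FBS and ten compound concentrations. Supernatant kynurenine measured after TCA treatment and Ehrlich's reagent (4-dimethylaminobenzaldehyde) by absorbance at 480 nm against a kynurenine standard curve, then curve-fitted.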

T1 sequence (P48775 whole entry): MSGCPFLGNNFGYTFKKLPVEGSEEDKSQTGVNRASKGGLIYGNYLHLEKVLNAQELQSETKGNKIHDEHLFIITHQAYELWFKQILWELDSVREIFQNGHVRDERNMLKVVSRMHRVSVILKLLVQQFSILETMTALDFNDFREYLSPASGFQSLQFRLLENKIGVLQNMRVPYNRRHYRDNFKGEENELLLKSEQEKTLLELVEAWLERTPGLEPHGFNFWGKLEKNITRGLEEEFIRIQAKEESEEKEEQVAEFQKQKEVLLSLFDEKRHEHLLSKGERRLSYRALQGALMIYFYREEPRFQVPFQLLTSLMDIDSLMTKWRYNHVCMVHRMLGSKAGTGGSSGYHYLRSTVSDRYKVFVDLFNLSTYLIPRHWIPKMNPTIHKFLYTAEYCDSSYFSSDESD

Compound	IC50
CNC(=O)C(N)CN1C(C)c2cc(-c3c[nH]c4cc(F)ccc34)ccc2S1(=O)=O (single isomer, unassigned; (-)) [Example 103, (−)-2-amino-3-(5-(6-fluoro-1H-indol-3-yl)-3-methyl-1,1-dioxidobenzo[d]isothiazol-2(3H)-yl)-N-methylpropanamide]	413 nM
CNC(=O)C(CN1C(C)c2cc(-c3c[nH]c4cc(F)ccc34)ccc2S1(=O)=O)OC (single isomer, unassigned; (-)) [Example 106, (−)-3-(5-(6-fluoro-1H-indol-3-yl)-3-methyl-1,1-dioxidobenzo[d]isothiazol-2(3H)-yl)-2-methoxy-N-methylpropanamide]	507 nM
CNC(=O)C(CN1C(C)c2cc(-c3c[nH]c4cc(F)ccc34)ccc2S1(=O)=O)OC (single isomer, unassigned; (-)) [Example 108, (−)-3-(5-(6-fluoro-1H-indol-3-yl)-3-methyl-1,1-dioxidobenzo[d]isothiazol-2(3H)-yl)-2-methoxy-N-methylpropanamide]	93 nM
CCOC(=O)NCCN1C(C)c2cc(-c3c[nH]c4cc(F)ccc34)ccc2S1(=O)=O (single isomer, unassigned; (-)) [Example 109, (−)-ethyl (2-(5-(6-fluoro-1H-indol-3-yl)-3-methyl-1,1-dioxidobenzo[d]isothiazol-2(3H)-yl)ethyl)carbamate]	345 nM
CNC(=O)CN1C(C)c2cc(-c3c[nH]c4cc(F)ccc34)ccc2S1(=O)=O (single isomer, unassigned; (-)) [Example 111, (−)-2-(5-(6-fluoro-1H-indol-3-yl)-3-methyl-1,1-dioxidobenzo[d]isothiazol-2(3H)-yl)-N-methylacetamide]	45 nM
CC1c2cc(-c3c[nH]c4cc(F)ccc34)ccc2S(=O)(=O)N1CC(=O)N(C)C (single isomer, unassigned; (-)) [Example 113, (−)-2-(5-(6-fluoro-1H-indol-3-yl)-3-methyl-1,1-dioxidobenzo[d]isothiazol-2(3H)-yl)-N,N-dimethylacetamide]	59 nM
CC1c2cc(-c3c[nH]c4cc(F)ccc34)ccc2S(=O)(=O)N1CC(N)=O (single isomer, unassigned; (-)) [Example 116]	26 nM
CC1c2cc(-c3c[nH]c4cc(F)ccc34)ccc2S(=O)(=O)N1CCN1CCOCC1 (single isomer, unassigned; (-)) [Example 117, (−)-5-(6-fluoro-1H-indol-3-yl)-3-methyl-2-(2-morpholinoethyl)-2,3-dihydrobenzo[d]isothiazole 1,1-dioxide]	308 nM
CC1c2cc(-c3c[nH]c4cc(F)ccc34)ccc2S(=O)(=O)N1C1CCNC(=O)C1 (single isomer, unassigned; (-)) [Example 119, (−)-4-(-5-(6-fluoro-1H-indol-3-yl)-3-methyl-1,1-dioxidobenzo[d]isothiazol-2(3H)-yl)piperidin-2-one]	390 nM
CC1c2cc(-c3c[nH]c4cc(F)ccc34)ccc2S(=O)(=O)N1C1CCNC(=O)C1 (single isomer, unassigned; (-)) [Example 122, (−)-4-(-5-(6-fluoro-1H-indol-3-yl)-3-methyl-1,1-dioxidobenzo[d]isothiazol-2(3H)-yl)piperidin-2-one]	54 nM
CC1c2cc(-c3c[nH]c4cc(F)ccc34)ccc2S(=O)(=O)N1C1CNC(=O)C1 (single isomer, unassigned; (-)) [Example 124, (−)-4-(5-(6-fluoro-1H-indol-3-yl)-3-methyl-1,1-dioxido-benzo[d]isothiazol-2(3H)-yl)pyrrolidin-2-one]	68 nM
CC1c2cc(-c3c[nH]c4cc(F)ccc34)ccc2S(=O)(=O)N1C1CNC(=O)C1 (single isomer, unassigned; (-)) [Example 125, (−)-4-(5-(6-fluoro-1H-indol-3-yl)-3-methyl-1,1-dioxido-benzo[d]isothiazol-2(3H)-yl)pyrrolidin-2-one]	505 nM
CNC(=O)CN1C(CO)c2cc(-c3c[nH]c4cc(F)ccc34)ccc2S1(=O)=O (single isomer, unassigned; (-)) [Example 127, (−)-2-(5-(6-fluoro-1H-indol-3-yl)-3-(hydroxymethyl)-1,1-dioxidobenzo[d]isothiazol-2(3H)-yl)-N-methylacetamide]	87 nM
Cn1cnc(CN2C(CO)c3cc(-c4c[nH]c5cc(F)ccc45)ccc3S2(=O)=O)n1 (single isomer, unassigned; (-)) [Example 129, (−)-5-(6-fluoro-1H-indol-3-yl)-3-(hydroxymethyl)-2-((1-methyl-1H-1,2,4-triazol-3-yl)methyl)-2,3-dihydrobenzo[d]isothiazole 1,1-dioxide]	39 nM
O=S1(=O)c2ccc(-c3c[nH]c4cc(F)ccc34)cc2C(CO)N1CCO (single isomer, unassigned; (-)) [Example 132, (−)-5-(6-fluoro-1H-indol-3-yl)-2-(2-hydroxyethyl)-3-(hydroxymethyl)-2,3-dihydrobenzo[d]isothiazole 1,1-dioxide]	81 nM
CC1c2cc(-c3c[nH]c4cc(F)ccc34)ccc2S(=O)(=O)N1CCc1n[nH]c(=O)o1 (single isomer, unassigned; (-)) [Example 133, (−)-5-(2-(5-(6-fluoro-1H-indol-3-yl)-3-methyl-1,1-dioxidobenzo[d]isothiazol-2(3H)-yl)ethyl)-1,3,4-oxadiazol-2(3H)-one]	383 nM
CS(=O)(=O)NCC1NS(=O)(=O)c2ccc(-c3c[nH]c4cc(F)ccc34)cc21 (single isomer, unassigned; (-)) [Example 139, (−)-N-((5-(6-fluoro-1H-indol-3-yl)-1,1-dioxido-2,3-dihydrobenzo[d]isothiazol-3-yl)methyl)methanesulfonamide]	520 nM
O=S1(=O)c2ccc(-c3c[nH]c4cc(F)ccc34)cc2C(CO)N1CC(O)CO (single isomer, unassigned; (-)) [Example 142, (−)-2-(2,3-dihydroxypropyl)-5-(6-fluoro-1H-indol-3-yl)-3-(hydroxymethyl)-2,3-dihydrobenzo[d]isothiazole 1,1-dioxide]	124 nM
O=S1(=O)c2ccc(-c3c[nH]c4cc(F)ccc34)cc2C(CO)N1CC(O)CO (single isomer, unassigned; (-)) [Example 143, (−)-2-(2,3-dihydroxypropyl)-5-(6-fluoro-1H-indol-3-yl)-3-(hydroxymethyl)-2,3-dihydrobenzo[d]isothiazole 1,1-dioxide]	342 nM
CNC(=O)C(C)N1C(C)c2cc(-c3c[nH]c4cc(F)ccc34)ccc2S1(=O)=O (single isomer, unassigned; (-)) [Example 145, (−)-2-(5-(6-fluoro-1H-indol-3-yl)-3-methyl-1,1-dioxidobenzo[d]isothiazol-2(3H)-yl)-N-methylpropanamide]	92 nM
CNC(=O)C(C)N1C(C)c2cc(-c3c[nH]c4cc(F)ccc34)ccc2S1(=O)=O (single isomer, unassigned; (-)) [Example 148, (−)-2-(5-(6-fluoro-1H-indol-3-yl)-3-methyl-1,1-dioxidobenzo[d]isothiazol-2(3H)-yl)-N-methylpropanamide]	265 nM
CC1(C)NS(=O)(=O)c2ccc(-c3c[nH]c4cc(F)ccc34)cc21 [Example 5, 5-(6-fluoro-1H-indol-3-yl)-3,3-dimethyl-2,3-dihydrobenzo[d]isothiazole 1,1-dioxide]	96 nM
